These results are taken from ChEMBL document CHEMBL3352741, “Discovery of VU0431316: a negative allosteric modulator of mGlu5 with activity in a mouse model of anxiety” (Bioorg Med Chem Lett, 2014).

In experiment [1] the target is Metabotropic glutamate receptor 5 (Rattus norvegicus, UniProt P31424). Nature of the experiment: Negative allosteric modulator activity at rat mGlu5 expressed in HEK293A cells assessed as reduction in glutamate-induced calcium mobilization. Format: functional, cell-based, HEK293-A. In general terms: Calcium assays in cells follow changes in intracellular calcium, usually with a dye or a luminescent sensor.

The target in experiment [2] is Metabotropic glutamate receptor 5 (Rattus norvegicus) (UniProt P31424). The experiment is described as follows: Negative allosteric modulator activity at rat mGlu5 expressed in HEK293A cells assessed as reduction in 100 uM glutamate-induced calcium mobilization at 30 uM. The settings on record: HEK293-A. Format: functional, cell-based.
Chain of Metabotropic glutamate receptor 5 (Rattus norvegicus) (P31424 21-1203 limits assumed): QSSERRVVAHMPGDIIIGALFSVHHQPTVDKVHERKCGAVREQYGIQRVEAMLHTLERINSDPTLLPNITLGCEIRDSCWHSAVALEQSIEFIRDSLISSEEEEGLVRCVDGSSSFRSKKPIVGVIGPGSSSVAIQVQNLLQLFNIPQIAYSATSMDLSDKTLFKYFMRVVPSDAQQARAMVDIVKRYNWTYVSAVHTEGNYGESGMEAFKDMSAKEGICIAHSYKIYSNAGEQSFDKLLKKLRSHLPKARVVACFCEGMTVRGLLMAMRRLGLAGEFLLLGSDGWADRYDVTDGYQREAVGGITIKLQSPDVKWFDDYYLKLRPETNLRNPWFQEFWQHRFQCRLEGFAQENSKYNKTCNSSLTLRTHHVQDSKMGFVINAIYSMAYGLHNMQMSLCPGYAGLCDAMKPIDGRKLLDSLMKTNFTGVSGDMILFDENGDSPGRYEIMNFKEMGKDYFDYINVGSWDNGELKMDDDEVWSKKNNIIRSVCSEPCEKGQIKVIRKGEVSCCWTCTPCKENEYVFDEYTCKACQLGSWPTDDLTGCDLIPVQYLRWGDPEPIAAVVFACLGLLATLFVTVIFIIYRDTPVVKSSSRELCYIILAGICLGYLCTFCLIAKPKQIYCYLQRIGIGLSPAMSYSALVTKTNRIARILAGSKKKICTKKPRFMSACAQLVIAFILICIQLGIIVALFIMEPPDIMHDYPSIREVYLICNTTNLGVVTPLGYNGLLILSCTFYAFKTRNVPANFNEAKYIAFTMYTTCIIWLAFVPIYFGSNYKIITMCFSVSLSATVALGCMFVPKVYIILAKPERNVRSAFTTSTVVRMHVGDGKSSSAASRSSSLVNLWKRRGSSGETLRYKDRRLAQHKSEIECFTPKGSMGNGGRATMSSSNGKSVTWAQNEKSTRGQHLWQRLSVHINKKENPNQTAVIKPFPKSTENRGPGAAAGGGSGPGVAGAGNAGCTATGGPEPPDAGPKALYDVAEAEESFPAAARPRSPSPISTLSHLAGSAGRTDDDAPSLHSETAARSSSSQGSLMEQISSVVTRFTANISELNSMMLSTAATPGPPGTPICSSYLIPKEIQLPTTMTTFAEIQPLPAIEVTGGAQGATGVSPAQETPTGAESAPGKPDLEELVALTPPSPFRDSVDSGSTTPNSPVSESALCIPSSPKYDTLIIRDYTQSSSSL

Chain of Metabotropic glutamate receptor 5 (P31424 whole entry): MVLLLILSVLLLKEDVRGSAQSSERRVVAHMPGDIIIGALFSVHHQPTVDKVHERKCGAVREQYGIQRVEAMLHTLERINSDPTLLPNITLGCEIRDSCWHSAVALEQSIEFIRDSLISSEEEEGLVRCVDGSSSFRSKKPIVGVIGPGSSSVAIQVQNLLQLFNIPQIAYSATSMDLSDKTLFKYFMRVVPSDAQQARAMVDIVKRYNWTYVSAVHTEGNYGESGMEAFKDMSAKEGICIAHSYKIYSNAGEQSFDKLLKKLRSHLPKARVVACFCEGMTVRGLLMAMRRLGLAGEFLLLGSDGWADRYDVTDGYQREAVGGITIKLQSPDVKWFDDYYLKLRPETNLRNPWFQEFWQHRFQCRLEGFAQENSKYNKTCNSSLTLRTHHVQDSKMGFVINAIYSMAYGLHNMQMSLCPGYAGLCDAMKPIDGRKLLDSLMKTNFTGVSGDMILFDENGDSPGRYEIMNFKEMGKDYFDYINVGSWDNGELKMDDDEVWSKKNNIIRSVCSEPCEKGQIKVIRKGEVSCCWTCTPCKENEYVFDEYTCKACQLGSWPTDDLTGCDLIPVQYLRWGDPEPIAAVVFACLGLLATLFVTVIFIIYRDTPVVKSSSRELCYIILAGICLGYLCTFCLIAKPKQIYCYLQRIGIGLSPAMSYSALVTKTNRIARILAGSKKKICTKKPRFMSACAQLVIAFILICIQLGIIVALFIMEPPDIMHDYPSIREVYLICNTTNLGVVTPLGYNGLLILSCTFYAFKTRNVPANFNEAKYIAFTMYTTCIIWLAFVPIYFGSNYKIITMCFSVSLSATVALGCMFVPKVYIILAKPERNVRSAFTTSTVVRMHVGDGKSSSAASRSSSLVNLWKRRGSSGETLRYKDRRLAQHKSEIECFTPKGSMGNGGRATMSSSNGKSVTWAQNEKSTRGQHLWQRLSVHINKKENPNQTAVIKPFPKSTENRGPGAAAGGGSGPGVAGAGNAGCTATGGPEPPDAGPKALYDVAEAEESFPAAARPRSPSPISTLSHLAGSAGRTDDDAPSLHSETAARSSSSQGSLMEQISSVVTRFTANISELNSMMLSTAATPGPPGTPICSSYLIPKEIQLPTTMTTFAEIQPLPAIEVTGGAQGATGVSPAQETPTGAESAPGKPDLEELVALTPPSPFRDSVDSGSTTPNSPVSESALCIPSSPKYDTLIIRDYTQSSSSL

Broadly, the IC50 is the concentration that inhibits the measured activity by half. As for `O=C(Nc1cncc(Oc2cncc(F)c2)n1)c1cccc(Cl)n1`, the 50% inhibitory concentration (IC50) in experiment [1] was above 30 µM. With `O=C(Nc1cncc(Oc2cncnc2)n1)c1cc(Br)ccn1`, the %max in experiment [2] was 2.3%. Further, the IC50 in experiment [1] turned out to be 0.1 µM. On the same counts, the results for `O=C(Nc1cncc(Oc2cncnc2)n1)c1ccsc1` are 15% and above 10 µM. With `COc1cccc(C(=O)Nc2cncc(Oc3cncnc3)n2)c1`, the %max in experiment [2] is -4.3%. Take `Cc1cc(C(=O)Nc2cncc(Oc3cncc(F)c3)n2)cs1`: the %max in experiment [2] turned out to be 1.1%. In experiment [1], the half-maximal inhibitory concentration (IC50) was found to be 0.99 µM.

`O=C(Nc1cncc(Oc2cncc(F)c2)n1)c1cc(Cl)ccn1`: in experiment [2], the %max is 2%. In addition, in experiment [1], the half-inhibitory concentration (IC50) was determined as 0.111 µM.

In the case of `N#Cc1cc(F)cc(C(=O)Nc2cncc(Oc3cncc(F)c3)n2)c1`, the IC50 in experiment [1] was above 30 µM. Take `O=C(Nc1cncc(Oc2cncc(F)c2)n1)c1cncs1`: the half-maximal inhibitory concentration (IC50) in experiment [1] was above 30 µM.

For the compound `O=C(Nc1cncc(Oc2cncc(F)c2)n1)c1cccc(Cl)c1`, the %max in experiment [2] came out at 2%. Also, the IC50 in experiment [1] was 0.118 µM. As for `O=C(Nc1ccnc(Oc2cccnc2)c1)c1cccc(Cl)c1`, the half-maximal inhibitory concentration (IC50) in experiment [1] was found to be 3.7 µM. On to `O=C(Nc1cncc(Oc2cncc(F)c2)n1)c1cccs1`, for which the %max in experiment [2] is 7.8%. For the same compound, the IC50 in experiment [1] is 6.37 µM.

In the case of `O=C(Nc1cncc(Oc2cncc(F)c2)n1)c1cc(F)cc(F)c1`, the IC50 in experiment [1] is above 30 µM. Regarding `CN(C)c1cccc(C(=O)Nc2cncc(Oc3cncc(F)c3)n2)c1`, in experiment [2], the %max stood at 52%. Also, the IC50 in experiment [1] was above 10 µM. `O=C(Nc1cncc(Oc2cccnc2)n1)c1cccc(Cl)c1`: the IC50 in experiment [1] came out at 0.129 µM. `Cc1cc(C)cc(C(=O)Nc2cncc(Oc3cncc(F)c3)n2)c1`: the %max in experiment [2] was 6.6%. The same measure, in the same setting: for `O=C(Nc1cncc(Oc2cncc(F)c2)n1)c1ccsc1` the value was 0.1%. On to `O=C(Nc1cncc(Oc2cncnc2)n1)c1cscn1`, for which the %max in experiment [2] is 35%. In addition, in experiment [1], the 50% inhibitory concentration (IC50) is above 10 µM. On to `O=C(Nc1cncc(Oc2cncnc2)n1)c1cccc(F)c1`, for which, in experiment [2], the %max amounted to 1.5%. The IC50 in experiment [1] is 5.14 µM. With `O=C(Nc1cncc(Oc2cncc(F)c2)n1)c1cccnc1`, the half-inhibitory concentration (IC50) in experiment [1] was above 30 µM.

For `Cc1cccc(C(=O)Nc2cncc(Oc3cncc(F)c3)n2)n1`, the half-maximal inhibitory concentration (IC50) in experiment [1] was above 30 µM. Consider `O=C(Nc1cncc(Oc2cncc(F)c2)n1)c1ccc(F)c(Cl)c1`, for which, in experiment [2], the %max is -2.8%. Besides, the IC50 in experiment [1] is 4.59 µM.

For `N#Cc1cccc(C(=O)Nc2cncc(Oc3cncc(F)c3)n2)c1`, the %max in experiment [2] was determined as 1.2%. The IC50 in experiment [1] was 0.662 µM. On the same counts, the results for `O=C(Nc1cncc(Oc2cncnc2)n1)c1ccccc1` are 12% and above 10 µM. Taken in the same sequence, the figures for `Cc1csc(C(=O)Nc2cncc(Oc3cncc(F)c3)n2)n1` were 20% and above 10 µM.

Consider `O=C(Nc1cncc(Oc2cncc(F)c2)n1)c1cccc(F)c1`, for which, in experiment [2], the %max is -0.4%. Further, the concentration for half-maximal inhibition (IC50) in experiment [1] was found to be 3.82 µM. As for `Cc1nc(C(=O)Nc2cncc(Oc3cncc(F)c3)n2)cs1`, in experiment [2], the %max is 19%. Turning to `O=C(Nc1cncc(Oc2cncc(F)c2)n1)c1cccc(Cl)c1F`, the IC50 in experiment [1] was above 30 µM. With `O=C(Nc1cncc(Oc2cncnc2)n1)c1cccs1`, the %max in experiment [2] amounted to 20%. Besides, the 50% inhibitory concentration (IC50) in experiment [1] is above 10 µM. `COc1cccc(C(=O)Nc2cncc(Oc3cncc(F)c3)n2)c1`: the %max in experiment [2] was -5.6%.

On to `O=C(Nc1cncc(Oc2cncc(F)c2)n1)c1cc(Cl)cc(Cl)c1`, for which the IC50 in experiment [1] is above 30 µM. As for `O=C(Nc1cncc(Oc2cncc(F)c2)n1)c1cscn1`, the %max in experiment [2] stood at 22%. Also, the IC50 in experiment [1] turned out to be 8.43 µM. For `COc1cc(OC)cc(C(=O)Nc2cncc(Oc3cncc(F)c3)n2)c1`, the concentration for half-maximal inhibition (IC50) in experiment [1] is above 30 µM.

As to `O=C(Nc1cncc(Oc2cncc(F)c2)n1)c1ccccc1`, in experiment [2], the %max was -9.4%.

`O=C(Nc1cncc(Oc2cncc(F)c2)n1)c1ccccn1`: the %max in experiment [2] was 40%. Also, in experiment [1], the IC50 is above 10 µM. Taken in the same sequence, the figures for `O=C(Nc1cncc(Oc2cncc(F)c2)n1)c1cc(F)cc(Cl)c1` were 48% and above 10 µM. Consider `Cc1ccnc(C(=O)Nc2cncc(Oc3cncnc3)n2)c1`, for which, in experiment [2], the %max amounted to 2.1%. The IC50 in experiment [1] turned out to be 0.193 µM. Taken in the same sequence, the figures for `Cc1ccnc(C(=O)Nc2cncc(Oc3cncc(F)c3)n2)c1` were 1.7% and 0.311 µM. For `O=C(Nc1cncc(Oc2cncc(F)c2)n1)c1cc(Cl)ccc1F`, the %max in experiment [2] was 1%. The IC50 in experiment [1] is 0.894 µM. In the case of `Cc1ccc(C(=O)Nc2cncc(Oc3cncnc3)n2)s1`, the half-inhibitory concentration (IC50) in experiment [1] is above 30 µM. For the compound `O=C(Nc1cncc(Oc2cncc(F)c2)n1)c1nccs1`, the %max in experiment [2] was found to be 40%. Moreover, the 50% inhibitory concentration (IC50) in experiment [1] was above 10 µM. Regarding `O=C(Nc1cncc(Oc2cncc(F)c2)n1)c1cccnn1`, in experiment [1], the IC50 was above 30 µM.

Consider `Cc1cccc(C(=O)Nc2cncc(Oc3cncc(F)c3)n2)c1`, for which, in experiment [2], the %max was 2.1%. For the same compound, the 50% inhibitory concentration (IC50) in experiment [1] stood at 0.199 µM. For `O=C(Nc1cncc(Oc2cncc(F)c2)n1)c1ccncn1`, in experiment [1], the concentration for half-maximal inhibition (IC50) is above 30 µM.
